Data: patent US11542313B2, “Incretin analogs and uses thereof” (Eli Lilly and Company, priority 2017, dated 2023)
*1 amine or outer side, *2 acyl side, *3 side chain or, on linkers, in order; H or OH if unused. Where a SMILES comes first, the peptide text is derived from it. Side-chain parts run from the residue outwards. [ ]: non-standard residue; d: D form. The star is where a group is joined. C20 diacid = O=C(O)CCCCCCCCCCCCCCCCCCC(=O)*; γGlu = O=C(O)[C@H](CCC(=O)[*:2])N[*:1]; αMeL = CC(C)C[C@](C)(N)C(=O)O; AEEA = NCCOCCOCC(=O)O; Aib = CC(C)(N)C(=O)O

Experiments:
[1] = biological target: T1, human glucagon receptor (GcgR) (Homo sapiens, UniProt P47871); assay: Radioligand competition binding (SPA), human GcgR membranes
T1 construct: expressed in transfected cells; host or cells: HEK293 (membranes)
T1 sequence (P47871 26-477): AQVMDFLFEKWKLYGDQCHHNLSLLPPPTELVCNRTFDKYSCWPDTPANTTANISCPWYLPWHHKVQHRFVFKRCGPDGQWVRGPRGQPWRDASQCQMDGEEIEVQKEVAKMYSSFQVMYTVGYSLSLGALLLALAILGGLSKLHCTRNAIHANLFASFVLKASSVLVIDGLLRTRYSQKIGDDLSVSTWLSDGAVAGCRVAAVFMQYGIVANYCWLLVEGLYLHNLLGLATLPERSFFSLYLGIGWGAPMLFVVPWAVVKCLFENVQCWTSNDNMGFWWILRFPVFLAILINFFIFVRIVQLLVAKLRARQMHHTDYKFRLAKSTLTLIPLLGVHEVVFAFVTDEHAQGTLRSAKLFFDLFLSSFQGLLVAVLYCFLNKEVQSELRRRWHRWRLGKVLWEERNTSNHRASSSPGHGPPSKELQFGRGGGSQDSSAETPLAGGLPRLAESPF
Source text: (§1) Radioligand competition binding assays are run to determine the equilibrium dissociation constant for exemplary compounds and comparator molecules.
(§2) Competition curves are plotted as the percent specific inhibition (y-axis) versus log concentration of compound (x-axis) and analyzed using a four parameter nonlinear regression fit with variable slope (ABase or Genedata).

[2] = biological target: T2, human GIP receptor (GIPR) (Homo sapiens, UniProt P48546); assay: Radioligand competition binding (SPA), human GIPR membranes
T2 construct: expressed in transfected cells; host or cells: HEK293 (membranes)
T2 sequence (P48546 22-466): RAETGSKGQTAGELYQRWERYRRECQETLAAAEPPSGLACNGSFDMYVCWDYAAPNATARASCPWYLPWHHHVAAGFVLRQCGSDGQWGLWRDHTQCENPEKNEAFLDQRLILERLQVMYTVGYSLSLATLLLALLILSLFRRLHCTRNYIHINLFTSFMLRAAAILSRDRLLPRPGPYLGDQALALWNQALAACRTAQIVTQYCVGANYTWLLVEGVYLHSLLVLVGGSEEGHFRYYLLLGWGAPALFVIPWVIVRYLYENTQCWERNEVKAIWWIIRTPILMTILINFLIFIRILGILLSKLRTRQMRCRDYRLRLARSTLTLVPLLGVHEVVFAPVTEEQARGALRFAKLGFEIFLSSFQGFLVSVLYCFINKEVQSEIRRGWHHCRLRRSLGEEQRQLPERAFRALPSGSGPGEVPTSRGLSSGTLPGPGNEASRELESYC
Source text: as §1, §2

[3] = biological target: T3, GLP-1 receptor (GLP-1R) (Homo sapiens, UniProt P43220); assay: Radioligand competition binding (SPA), human GLP-1R membranes
T3 construct: expressed in transfected cells; host or cells: HEK293 (membranes)
T3 sequence (P43220 24-463): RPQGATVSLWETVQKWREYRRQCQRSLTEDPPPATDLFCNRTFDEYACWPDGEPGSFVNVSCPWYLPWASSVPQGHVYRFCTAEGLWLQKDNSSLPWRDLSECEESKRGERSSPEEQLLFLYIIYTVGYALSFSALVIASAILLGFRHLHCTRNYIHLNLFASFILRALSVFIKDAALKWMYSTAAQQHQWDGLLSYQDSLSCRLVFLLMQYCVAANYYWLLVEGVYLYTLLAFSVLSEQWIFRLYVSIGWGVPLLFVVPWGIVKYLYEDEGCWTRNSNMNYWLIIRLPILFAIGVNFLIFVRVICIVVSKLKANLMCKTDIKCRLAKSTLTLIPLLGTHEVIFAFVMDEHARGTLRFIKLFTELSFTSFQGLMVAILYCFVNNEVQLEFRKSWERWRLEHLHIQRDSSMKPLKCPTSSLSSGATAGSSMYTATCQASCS
Source text: as §1, §2

[4] = Pharmacokinetics in male Sprague Dawley rats; settings: for CL/F / Tmax / half-life: male, Sprague-Dawley, rat, plasma, sc, 100 nmol/kg; for AUCINF_D_obs / Cmax/D: single subcutaneous 100 nMol/kg, male Sprague Dawley rats, n = 3
Procedure: The pharmacokinetics of the exemplary analogs are evaluated following a single subcutaneous administration of 100 nM/kg to male Sprague Dawley rats. Blood samples are collected over 120 hours, and resulting individual plasma concentrations are used to calculate pharmacokinetic parameters. Peptide plasma (K3 EDTA) concentrations are determined using a qualified LC/MS method that measured the intact mass of the analog. Each peptide and an analog as an internal standard are extracted from 100% specie specified plasma using methanol with 0.1% formic acid. A Thermo Q-Exactive, High Resolution Instrument, and a Thermo Easy Spray PepMap are combined for LC/MS detection.

SMILES | Ki [1] | Ki [2] | Ki [3] | CL/F [4] | Tmax [4] | half-life [4] | AUCINF_D_obs [4] | Cmax/D [4]
CC[C@H](C)[C@H](NC(=O)[C@H](Cc1ccccc1)NC(=O)[C@H](C)NC(=O)[C@](C)(CCCCN)NC(=O)[C@H](CCC(N)=O)NC(=O)[C@H](C)NC(=O)[C@H](CCCCNC(=O)COCCOCCNC(=O)COCCOCCNC(=O)CC[C@H](NC(=O)CCCCCCCCCCCCCCCCCCC(=O)O)C(=O)O)NC(=O)[C@H](CCCCN)NC(=O)[C@H](CC(=O)O)NC(=O)[C@H](CC(C)C)NC(=O)[C@](C)(CC(C)C)NC(=O)[C@@H](NC(=O)[C@H](CO)NC(=O)[C@H](Cc1ccc(O)cc1)NC(=O)[C@H](CC(=O)O)NC(=O)[C@H](CO)NC(=O)[C@@H](NC(=O)[C@H](Cc1ccccc1)NC(=O)[C@@H](NC(=O)CNC(=O)[C@H](CCC(N)=O)NC(=O)C(C)(C)NC(=O)[C@@H](N)Cc1ccc(O)cc1)[C@@H](C)O)[C@@H](C)O)[C@@H](C)CC)C(=O)N[C@@H](CCC(=O)O)C(=O)N[C@@H](Cc1ccc(O)cc1)C(=O)N[C@@H](CC(C)C)C(=O)N[C@@H](CC(C)C)C(=O)N[C@@H](CCC(=O)O)C(=O)NCC(=O)NCC(=O)N1CCC[C@H]1C(=O)N[C@@H](CO)C(=O)N[C@@H](CO)C(=O)NCC(=O)N[C@@H](C)C(=O)N1CCC[C@H]1C(=O)N1CCC[C@H]1C(=O)N1CCC[C@H]1C(=O)N[C@@H](CO)C(N)=O [Example 3] | 12 nM | 0.0446 nM | 6.06 nM | 6.9 mL/h/kg | 16 h | 19.2 h | 146 hr*kg*nmol/L/nmol | 2.5 kg*nmol/L/nmol
CC[C@H](C)[C@H](NC(=O)[C@H](Cc1ccccc1)NC(=O)[C@H](C)NC(=O)[C@H](CCC(N)=O)NC(=O)[C@H](C)NC(=O)[C@H](C)NC(=O)[C@H](CCCCNC(=O)COCCOCCNC(=O)COCCOCCNC(=O)CC[C@H](NC(=O)CCCCCCCCCCCCCCCCCCC(=O)O)C(=O)O)NC(=O)[C@H](CCCCN)NC(=O)[C@H](CC(=O)O)NC(=O)[C@H](CC(C)C)NC(=O)[C@](C)(CC(C)C)NC(=O)[C@@H](NC(=O)[C@H](CO)NC(=O)[C@H](Cc1ccc(O)cc1)NC(=O)[C@H](CC(=O)O)NC(=O)[C@H](CO)NC(=O)[C@@H](NC(=O)[C@H](Cc1ccccc1)NC(=O)[C@@H](NC(=O)CNC(=O)[C@H](CCC(N)=O)NC(=O)C(C)(C)NC(=O)[C@@H](N)Cc1ccc(O)cc1)[C@@H](C)O)[C@@H](C)O)[C@@H](C)CC)C(=O)N[C@@H](CCC(=O)O)C(=O)N[C@@H](Cc1ccc(O)cc1)C(=O)N[C@@H](CC(C)C)C(=O)N[C@@H](CC(C)C)C(=O)N[C@@H](CCC(=O)O)C(=O)NCC(=O)NCC(=O)N1CCC[C@H]1C(=O)N[C@@H](CO)C(=O)N[C@@H](CO)C(=O)NCC(=O)N[C@@H](C)C(=O)N1CCC[C@H]1C(=O)N1CCC[C@H]1C(=O)N1CCC[C@H]1C(=O)N[C@@H](CO)C(N)=O [Example 6] (H-Y[Aib]QGTFTSDYSI[αMeL]LDKK([AEEA-AEEA-γGlu-C20 diacid])AAQAFIEYLLEGGPSSGAPPPS-NH2; N-terminus assumed) | 0.835 nM | 0.249 nM | 36.7 nM | – | – | – | – | –
CC[C@H](C)[C@H](NC(=O)[C@H](Cc1ccccc1)NC(=O)[C@H](C)NC(=O)[C@H](Cc1c[nH]cn1)NC(=O)[C@H](CCC(N)=O)NC(=O)[C@H](C)NC(=O)[C@H](CCCCNC(=O)COCCOCCNC(=O)COCCOCCNC(=O)CC[C@H](NC(=O)CCCCCCCCCCCCCCCCCCC(=O)O)C(=O)O)NC(=O)[C@H](CCCCN)NC(=O)[C@H](CC(=O)O)NC(=O)[C@H](CC(C)C)NC(=O)[C@](C)(CC(C)C)NC(=O)[C@@H](NC(=O)[C@H](CO)NC(=O)[C@H](Cc1ccc(O)cc1)NC(=O)[C@H](CC(=O)O)NC(=O)[C@H](CO)NC(=O)[C@@H](NC(=O)[C@H](Cc1ccccc1)NC(=O)[C@@H](NC(=O)CNC(=O)[C@H](CCC(N)=O)NC(=O)C(C)(C)NC(=O)[C@@H](N)Cc1ccc(O)cc1)[C@@H](C)O)[C@@H](C)O)[C@@H](C)CC)C(=O)N[C@@H](CCC(=O)O)C(=O)N[C@@H](Cc1ccc(O)cc1)C(=O)N[C@@H](CC(C)C)C(=O)N[C@@H](CC(C)C)C(=O)N[C@@H](CCC(=O)O)C(=O)NCC(=O)NCC(=O)N1CCC[C@H]1C(=O)N[C@@H](CO)C(=O)N[C@@H](CO)C(=O)NCC(=O)N[C@@H](C)C(=O)N1CCC[C@H]1C(=O)N1CCC[C@H]1C(=O)N1CCC[C@H]1C(=O)N[C@@H](CO)C(N)=O [Example 7] (H-Y[Aib]QGTFTSDYSI[αMeL]LDKK([AEEA-AEEA-γGlu-C20 diacid])AQHAFIEYLLEGGPSSGAPPPS-NH2) | 16.3 nM | 0.11 nM | 21.4 nM | – | – | – | – | –
CC[C@H](C)[C@H](NC(=O)[C@H](Cc1ccccc1)NC(=O)[C@H](C)NC(=O)[C@H](Cc1c[nH]cn1)NC(=O)[C@H](CCC(N)=O)NC(=O)[C@H](C)NC(=O)[C@H](CCCCNC(=O)COCCOCCNC(=O)CC[C@H](NC(=O)CCCCCCCCCCCCCCCCCCC(=O)O)C(=O)O)NC(=O)[C@H](CCCCN)NC(=O)[C@H](CC(=O)O)NC(=O)[C@H](CC(C)C)NC(=O)[C@](C)(CC(C)C)NC(=O)[C@@H](NC(=O)[C@H](CO)NC(=O)[C@H](Cc1ccc(O)cc1)NC(=O)[C@H](CC(=O)O)NC(=O)[C@H](CO)NC(=O)[C@@H](NC(=O)[C@H](Cc1ccccc1)NC(=O)[C@@H](NC(=O)CNC(=O)[C@H](CCC(N)=O)NC(=O)C(C)(C)NC(=O)[C@@H](N)Cc1ccc(O)cc1)[C@@H](C)O)[C@@H](C)O)[C@@H](C)CC)C(=O)N[C@@H](CCC(=O)O)C(=O)N[C@@H](Cc1ccc(O)cc1)C(=O)N[C@@H](CC(C)C)C(=O)N[C@@H](CC(C)C)C(=O)N[C@@H](CCC(=O)O)C(=O)NCC(=O)NCC(=O)N1CCC[C@H]1C(=O)N[C@@H](CO)C(=O)N[C@@H](CO)C(=O)NCC(=O)N[C@@H](C)C(=O)N1CCC[C@H]1C(=O)N1CCC[C@H]1C(=O)N1CCC[C@H]1C(=O)N[C@@H](CO)C(N)=O [Example 10] (H-Y[Aib]QGTFTSDYSI[αMeL]LDKK([AEEA-γGlu-C20 diacid])AQHAFIEYLLEGGPSSGAPPPS-NH2; N-terminus assumed) | 7.37 nM | 0.118 nM | 12 nM | 4.9 mL/h/kg | 24 h | 23.4 h | 203.5 hr*kg*nmol/L/nmol | 3.1 kg*nmol/L/nmol
CC[C@H](C)[C@H](NC(=O)[C@H](Cc1ccccc1)NC(=O)[C@H](C)NC(=O)C(C)(C)NC(=O)[C@H](CCC(N)=O)NC(=O)[C@H](C)NC(=O)[C@H](CCCCNC(=O)COCCOCCNC(=O)COCCOCCNC(=O)CC[C@H](NC(=O)CCCCCCCCCCCCCCCCCCC(=O)O)C(=O)O)NC(=O)[C@H](CCCCN)NC(=O)[C@H](CC(=O)O)NC(=O)[C@H](CC(C)C)NC(=O)[C@](C)(CC(C)C)NC(=O)[C@@H](NC(=O)[C@H](CO)NC(=O)[C@H](Cc1ccc(O)cc1)NC(=O)[C@H](CC(=O)O)NC(=O)[C@H](CO)NC(=O)[C@@H](NC(=O)[C@H](Cc1ccccc1)NC(=O)[C@@H](NC(=O)CNC(=O)[C@H](CCC(N)=O)NC(=O)C(C)(C)NC(=O)[C@@H](N)Cc1ccc(O)cc1)[C@@H](C)O)[C@@H](C)O)[C@@H](C)CC)C(=O)N[C@@H](CCC(=O)O)C(=O)N[C@@H](Cc1ccc(O)cc1)C(=O)N[C@@H](CC(C)C)C(=O)N[C@@H](CC(C)C)C(=O)N[C@@H](CCC(=O)O)C(=O)NCC(=O)NCC(=O)N1CCC[C@H]1C(=O)N[C@@H](CO)C(=O)N[C@@H](CO)C(=O)NCC(=O)N[C@@H](C)C(=O)N1CCC[C@H]1C(=O)N1CCC[C@H]1C(=O)N1CCC[C@H]1C(=O)N[C@@H](CO)C(N)=O [Example 11] | 10.8 nM | 0.089 nM | 9.97 nM | 4.7 mL/h/kg | 20 h | 24.3 h | 215.1 hr*kg*nmol/L/nmol | 3.7 kg*nmol/L/nmol
CC[C@H](C)[C@H](NC(=O)[C@H](Cc1ccccc1)NC(=O)[C@H](C)NC(=O)C(C)(C)NC(=O)[C@H](CCC(N)=O)NC(=O)[C@H](C)NC(=O)[C@H](CCCCNC(=O)COCCOCCNC(=O)CC[C@H](NC(=O)CCCCCCCCCCCCCCCCCCC(=O)O)C(=O)O)NC(=O)[C@H](CCCCN)NC(=O)[C@H](CC(=O)O)NC(=O)[C@H](CC(C)C)NC(=O)[C@](C)(CC(C)C)NC(=O)[C@@H](NC(=O)[C@H](CO)NC(=O)[C@H](Cc1ccc(O)cc1)NC(=O)[C@H](CC(=O)O)NC(=O)[C@H](CO)NC(=O)[C@@H](NC(=O)[C@H](Cc1ccccc1)NC(=O)[C@@H](NC(=O)CNC(=O)[C@H](CCC(N)=O)NC(=O)C(C)(C)NC(=O)[C@@H](N)Cc1ccc(O)cc1)[C@@H](C)O)[C@@H](C)O)[C@@H](C)CC)C(=O)N[C@@H](CCC(=O)O)C(=O)N[C@@H](Cc1ccc(O)cc1)C(=O)N[C@@H](CC(C)C)C(=O)N[C@@H](CC(C)C)C(=O)N[C@@H](CCC(=O)O)C(=O)NCC(=O)NCC(=O)N1CCC[C@H]1C(=O)N[C@@H](CO)C(=O)N[C@@H](CO)C(=O)NCC(=O)N[C@@H](C)C(=O)N1CCC[C@H]1C(=O)N1CCC[C@H]1C(=O)N1CCC[C@H]1C(=O)N[C@@H](CO)C(N)=O [Example 12] | 5.6 nM | – | – | 5.1 mL/h/kg | 24 h | 26.5 h | 197.1 hr*kg*nmol/L/nmol | 3.7 kg*nmol/L/nmol
